Assay results published in the NIST ThermoML archive (doi:10.1016/j.tca.2015.06.017).
± gives the expanded uncertainty stated by the source.

Assay: xn = mol fraction of the nth substance listed
Conditions: Liquid, Vibrating tube method

CCC(C)Cl (configuration not stated) [2-chlorobutane] + CCCCCCC
mass density [kg/m3]
Conditions | 313.15 K | 323.15 K
100 kPa, x2 = 0.0524 | – | 825.09 ± 0.24
100 kPa, x2 = 0.1018 | – | 813.02 ± 0.24
100 kPa, x2 = 0.1968 | – | 791.28 ± 0.24
100 kPa, x2 = 0.3006 | – | 769.26 ± 0.24
100 kPa, x2 = 0.4029 | – | 749.24 ± 0.24
100 kPa, x2 = 0.5017 | – | 731.3 ± 0.25
100 kPa, x2 = 0.6008 | – | 714.64 ± 0.25
100 kPa, x2 = 0.7023 | – | 698.73 ± 0.25
100 kPa, x2 = 0.7977 | – | 684.8 ± 0.25
100 kPa, x2 = 0.8986 | – | 671.19 ± 0.25
100 kPa, x2 = 0.952 | – | 664.27 ± 0.25
2000 kPa, x2 = 0.0524 | – | 827.83 ± 0.25
2000 kPa, x2 = 0.1018 | – | 815.67 ± 0.25
2000 kPa, x2 = 0.1968 | – | 793.94 ± 0.26
2000 kPa, x2 = 0.3006 | – | 771.89 ± 0.26
2000 kPa, x2 = 0.4029 | – | 751.76 ± 0.26
2000 kPa, x2 = 0.5017 | – | 733.83 ± 0.26
2000 kPa, x2 = 0.6008 | – | 717.08 ± 0.27
2000 kPa, x2 = 0.7023 | – | 701.07 ± 0.27
2000 kPa, x2 = 0.7977 | – | 687.1 ± 0.27
2000 kPa, x2 = 0.8986 | – | 673.45 ± 0.27
2000 kPa, x2 = 0.952 | – | 666.5 ± 0.28
5000 kPa, x2 = 0.0524 | – | 831.91 ± 0.27
5000 kPa, x2 = 0.1018 | – | 819.82 ± 0.27
5000 kPa, x2 = 0.1968 | – | 797.9 ± 0.28
5000 kPa, x2 = 0.3006 | – | 775.73 ± 0.28
5000 kPa, x2 = 0.4029 | – | 755.62 ± 0.29
5000 kPa, x2 = 0.5017 | – | 737.6 ± 0.29
5000 kPa, x2 = 0.6008 | – | 720.78 ± 0.3
5000 kPa, x2 = 0.7023 | – | 704.73 ± 0.3
5000 kPa, x2 = 0.7977 | – | 690.71 ± 0.31
5000 kPa, x2 = 0.8986 | – | 677.02 ± 0.31
5000 kPa, x2 = 0.952 | – | 670.04 ± 0.31
7000 kPa, x2 = 0.0524 | – | 834.54 ± 0.28
7000 kPa, x2 = 0.1018 | – | 822.46 ± 0.29
7000 kPa, x2 = 0.1968 | – | 800.49 ± 0.29
7000 kPa, x2 = 0.3006 | – | 778.37 ± 0.3
7000 kPa, x2 = 0.4029 | – | 758.11 ± 0.31
7000 kPa, x2 = 0.5017 | – | 740.05 ± 0.31
7000 kPa, x2 = 0.6008 | – | 723.19 ± 0.32
7000 kPa, x2 = 0.7023 | – | 707.1 ± 0.32
7000 kPa, x2 = 0.7977 | – | 693.06 ± 0.33
7000 kPa, x2 = 0.8986 | – | 679.34 ± 0.34
7000 kPa, x2 = 0.952 | – | 672.34 ± 0.34
10000 kPa, x2 = 0.0524 | – | 838.27 ± 0.3
10000 kPa, x2 = 0.1018 | – | 826.08 ± 0.31
10000 kPa, x2 = 0.1968 | – | 804.11 ± 0.31
10000 kPa, x2 = 0.3006 | – | 781.87 ± 0.32
10000 kPa, x2 = 0.4029 | – | 761.62 ± 0.33
10000 kPa, x2 = 0.5017 | – | 743.56 ± 0.34
10000 kPa, x2 = 0.6008 | – | 726.61 ± 0.35
10000 kPa, x2 = 0.7023 | – | 710.43 ± 0.36
10000 kPa, x2 = 0.7977 | – | 696.28 ± 0.36
10000 kPa, x2 = 0.8986 | – | 682.48 ± 0.37
10000 kPa, x2 = 0.952 | – | 675.45 ± 0.37
20000 kPa, x2 = 0.0524 | – | 849.8 ± 0.35
20000 kPa, x2 = 0.1018 | – | 837.53 ± 0.36
20000 kPa, x2 = 0.1968 | – | 815.4 ± 0.38
20000 kPa, x2 = 0.3006 | – | 792.88 ± 0.4
20000 kPa, x2 = 0.4029 | – | 772.5 ± 0.42
20000 kPa, x2 = 0.5017 | 762.72 ± 0.42 | 754.11 ± 0.43
20000 kPa, x2 = 0.6008 | 745.36 ± 0.44 | 737 ± 0.45
20000 kPa, x2 = 0.7023 | 728.79 ± 0.45 | 720.73 ± 0.46
20000 kPa, x2 = 0.7977 | 714.29 ± 0.47 | 706.35 ± 0.47
20000 kPa, x2 = 0.8986 | 699.96 ± 0.48 | 692.38 ± 0.48
20000 kPa, x2 = 0.952 | 692.74 ± 0.48 | 685.27 ± 0.49
30000 kPa, x2 = 0.0524 | 869.48 ± 0.39 | 860.04 ± 0.4
30000 kPa, x2 = 0.1018 | 856.99 ± 0.4 | 847.72 ± 0.41
30000 kPa, x2 = 0.1968 | 834.35 ± 0.43 | 825.47 ± 0.44
30000 kPa, x2 = 0.3006 | 811.43 ± 0.46 | 802.73 ± 0.47
30000 kPa, x2 = 0.4029 | 790.51 ± 0.48 | 782.02 ± 0.49
30000 kPa, x2 = 0.5017 | 771.71 ± 0.5 | 763.53 ± 0.51
30000 kPa, x2 = 0.6008 | 754.16 ± 0.53 | 746.23 ± 0.54
30000 kPa, x2 = 0.7023 | 737.41 ± 0.55 | 729.67 ± 0.56
30000 kPa, x2 = 0.7977 | 722.74 ± 0.56 | 715.26 ± 0.57
30000 kPa, x2 = 0.8986 | 708.23 ± 0.58 | 700.97 ± 0.59
30000 kPa, x2 = 0.952 | 700.93 ± 0.59 | 693.82 ± 0.6
40000 kPa, x2 = 0.0524 | 878.27 ± 0.42 | 869.34 ± 0.44
40000 kPa, x2 = 0.1018 | 865.7 ± 0.44 | 856.96 ± 0.46
40000 kPa, x2 = 0.1968 | 842.91 ± 0.48 | 834.4 ± 0.49
40000 kPa, x2 = 0.3006 | 819.81 ± 0.51 | 811.6 ± 0.53
40000 kPa, x2 = 0.4029 | 798.72 ± 0.55 | 790.72 ± 0.56
40000 kPa, x2 = 0.5017 | 779.77 ± 0.58 | 772.1 ± 0.59
40000 kPa, x2 = 0.6008 | 762.09 ± 0.61 | 754.63 ± 0.62
40000 kPa, x2 = 0.7023 | 745.16 ± 0.64 | 737.89 ± 0.65
40000 kPa, x2 = 0.7977 | 730.38 ± 0.66 | 723.24 ± 0.67
40000 kPa, x2 = 0.8986 | 715.74 ± 0.68 | 708.82 ± 0.69
40000 kPa, x2 = 0.952 | 708.38 ± 0.7 | 701.63 ± 0.71
50000 kPa, x2 = 0.0524 | 886.46 ± 0.45 | 877.82 ± 0.47
50000 kPa, x2 = 0.1018 | 873.81 ± 0.48 | 865.47 ± 0.49
50000 kPa, x2 = 0.1968 | 850.85 ± 0.52 | 842.71 ± 0.54
50000 kPa, x2 = 0.3006 | 827.58 ± 0.57 | 819.72 ± 0.58
50000 kPa, x2 = 0.4029 | 806.37 ± 0.61 | 798.76 ± 0.63
50000 kPa, x2 = 0.5017 | 787.33 ± 0.65 | 779.9 ± 0.66
50000 kPa, x2 = 0.6008 | 769.48 ± 0.68 | 762.28 ± 0.7
50000 kPa, x2 = 0.7023 | 752.43 ± 0.72 | 745.43 ± 0.73
50000 kPa, x2 = 0.7977 | 737.47 ± 0.75 | 730.63 ± 0.76
50000 kPa, x2 = 0.8986 | 722.77 ± 0.78 | 716.08 ± 0.79
50000 kPa, x2 = 0.952 | 715.34 ± 0.79 | 708.79 ± 0.81
60000 kPa, x2 = 0.0524 | 894.03 ± 0.48 | 885.83 ± 0.5
60000 kPa, x2 = 0.1018 | 881.29 ± 0.51 | 873.29 ± 0.53
60000 kPa, x2 = 0.1968 | 858.17 ± 0.56 | 850.37 ± 0.58
60000 kPa, x2 = 0.3006 | 834.83 ± 0.62 | 827.3 ± 0.64
60000 kPa, x2 = 0.4029 | 813.47 ± 0.67 | 806.2 ± 0.69
60000 kPa, x2 = 0.5017 | 794.34 ± 0.71 | 787.21 ± 0.73
60000 kPa, x2 = 0.6008 | 776.43 ± 0.76 | 769.46 ± 0.77
60000 kPa, x2 = 0.7023 | 759.35 ± 0.8 | 752.51 ± 0.81
60000 kPa, x2 = 0.7977 | 744.21 ± 0.83 | 737.59 ± 0.85
60000 kPa, x2 = 0.8986 | 729.29 ± 0.87 | 722.89 ± 0.89
60000 kPa, x2 = 0.952 | 721.82 ± 0.89 | 715.52 ± 0.9
65000 kPa, x2 = 0.0524 | 897.67 ± 0.49 | 889.59 ± 0.51
65000 kPa, x2 = 0.1018 | 884.92 ± 0.52 | 877.02 ± 0.54
65000 kPa, x2 = 0.1968 | 861.74 ± 0.58 | 854.06 ± 0.6
65000 kPa, x2 = 0.3006 | 838.38 ± 0.64 | 830.95 ± 0.66
65000 kPa, x2 = 0.4029 | 816.9 ± 0.7 | 809.85 ± 0.71
65000 kPa, x2 = 0.5017 | 797.7 ± 0.75 | 790.81 ± 0.76
65000 kPa, x2 = 0.6008 | 779.7 ± 0.79 | 772.98 ± 0.81
65000 kPa, x2 = 0.7023 | 762.47 ± 0.84 | 755.89 ± 0.85
65000 kPa, x2 = 0.7977 | 747.31 ± 0.88 | 740.95 ± 0.89
65000 kPa, x2 = 0.8986 | 732.32 ± 0.92 | 726.04 ± 0.93
65000 kPa, x2 = 0.952 | 724.77 ± 0.93 | 718.69 ± 0.95
